# Results: patent US20220296595A1, “CDK INHIBITORS” (QILU REGOR THERAPEUTICS INC., priority 2019, published 2022)
# pIC50: −log10 of the molar value.
# Biological target: T1, CDK4/CyclinD1 (Homo sapiens, UniProt P11802)
# T1 construct: purchased Thermofisher PR8064A
# Experiment: Assay for inhibition of CDK4/CyclinD1 (Caliper microfluidic kinase assay)
# Assay type: biochemical
# Conditions: CDK4/CyclinD1, 200 μM ATP
# Summary of the method: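 IC50 was obtained by 4-parameter sigmoidal fitting after 1 nM CDK4/CyclinD1, 200 μM ATP and 1 μM FL-34 substrate reacted for 3 h at room temperature (pH 7.5 HEPES, 10 mM MgCl2). After EDTA quench, substrate and product were separated and detected on a Caliper microfluidic chip.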
# T1 sequence (P11802 whole entry): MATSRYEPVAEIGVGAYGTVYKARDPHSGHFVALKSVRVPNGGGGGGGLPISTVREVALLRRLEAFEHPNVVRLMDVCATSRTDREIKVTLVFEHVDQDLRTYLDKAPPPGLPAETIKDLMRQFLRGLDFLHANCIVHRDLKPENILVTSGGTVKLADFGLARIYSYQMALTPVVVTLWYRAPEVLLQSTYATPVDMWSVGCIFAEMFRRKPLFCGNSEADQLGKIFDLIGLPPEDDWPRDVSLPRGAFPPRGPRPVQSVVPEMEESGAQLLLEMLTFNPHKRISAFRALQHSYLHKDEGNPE
# T1 sequence (P24385 whole entry partner): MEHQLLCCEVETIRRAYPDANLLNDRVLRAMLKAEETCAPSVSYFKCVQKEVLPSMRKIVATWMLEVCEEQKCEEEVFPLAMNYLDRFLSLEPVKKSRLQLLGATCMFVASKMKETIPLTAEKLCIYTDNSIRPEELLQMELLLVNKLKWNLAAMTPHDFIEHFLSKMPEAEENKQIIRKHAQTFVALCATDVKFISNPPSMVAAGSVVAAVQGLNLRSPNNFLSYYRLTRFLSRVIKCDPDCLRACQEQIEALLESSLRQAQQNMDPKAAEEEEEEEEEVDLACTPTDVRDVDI
row,SMILES,pIC50
1,CC(C)n1cnc2c(F)nc(-c3ccnc(Nc4ccc(N5CCNCC5)cn4)n3)cc21 [compound 286],> 8.00
2,CC(C)n1cnc2c1CN(c1ccnc(Nc3ccc(N4CCCNC4=O)cn3)n1)CC2 [compound 242],> 8.00
3,COc1nc(-c2nc(Nc3ccc(N4CCN(S(C)(=O)=O)CC4=O)cn3)ncc2F)cc2c1nc(C)n2C(C)C [Synthetic Example 127],> 8.00
4,Cc1nn2ccc(-c3ccnc(Nc4ccc(N5CCNCC5=O)cn4)n3)cc2c1C(C)C [compound 192],> 8.00
5,CC(C)c1cnn2ccc(-c3ccnc(Nc4ccc(C(N)=O)cc4)n3)cc12 [compound 168],> 8.00
6,COc1nc(-c2nc(Nc3ccc(N4CCNCC4=O)c(F)c3)ncc2F)cc2c1ncn2C(C)C [compound 115],> 8.00
7,CC(C)c1cnn2ccc(-c3ccnc(Nc4ccc(N5CCNCC5=O)cn4)n3)cc12 [compound 37],> 8.00
8,CC(C)c1cnn2ccc(-c3ccnc(Nc4ccc(N5CCC=CC5=O)cn4)n3)cc12 [compound 184],> 8.00
9,CCN1CCN(Cc2ccc(Nc3ncc(F)c(-c4cc(C)n5ncc(C(C)C)c5c4)n3)nc2)CC1 [compound 5],7.00 to 8.00
10,CC(C)c1cnn2ccc(-c3nc(Nc4ccc(N5CCN(CCO)CCC5=O)cn4)ncc3F)cc12 [Synthetic Example 52],> 8.00
11,CC(C)n1cnc2c(F)nc(-c3ccnc(Nc4ccc(N5CCCNC5=O)cn4)n3)cc21 [compound 275],> 8.00
12,CN(C)C1CCCN(c2ccc(Nc3nccc(-c4cc(F)c5c(c4)C(C)(C)CO5)n3)nc2)C1=O (stereo not drawn) [compound 261],> 8.00
13,COc1nc(-c2ccnc(Nc3ccc4c(n3)CCN(C(=O)CN(C)C)C4)n2)cc2c1ncn2C(C)C [Synthetic Example 140],> 8.00
14,CCN1CCN(c2ccc(Nc3nccc(-c4cc5c(ncn5C(C)C)c(OC)n4)n3)nc2)C(=O)C1 [compound 134],> 8.00
15,CC(C)(C)c1cnn2ccc(-c3ccnc(Nc4ccc(N5CCCC(N)C5=O)cc4)n3)cc12 (stereo not drawn) [compound 218],> 8.00
16,COc1nc(-c2nc(Nc3ccc(N4CCN(C5CCOCC5)CC4=O)cn3)ncc2F)cc2c1nc(C)n2C(C)C [compound 136],> 8.00

# Tested on: phosphorylation of Retinoblastoma Protein (pRb Ser807/811 or Ser780) in T47D cells
# Experiment: Inhibition of phosphorylation of retinoblastoma protein (pRb) in T47D cell (ELISA)
# Assay type: cell-based, human
# Conditions: Homo sapiens, T47D, read-out: Phospho T47D Ser807 IC50, pRb Ser807 phosphorylation, T47D cells
# Description: T47D breast cancer cells from American Type Culture Collection (ATCC, HTB-133) were plated at 40,000 cells/well in 96-well plates, and were incubated in RPMI 1640 medium (Gibco, 31800105) with 10% Fetal Bovine Serum (FBS, Biowest, FB-1058). Cells were then allowed to adhere overnight at 37° C., 5% CO2. The following day, compounds were titrated in a 3-fold dilution scheme, and the highest compound concentration tested was […]. After 24 hours incubation with compounds, cells were lysed in ice-cold lysis buffer containing phosphatase inhibitor cocktail and 1 mM PMSF. Cell lysates (50 μL/well) were then transferred to ELISA plates (pRb Ser807/811 ELISA kit, Cell Signaling, 13152 or pRb Ser780 ELISA kit, Cell Signaling, 13016)). Plates were incubated overnight at 4° C., with constant slow speed shaking. After incubation, plates were washed following manufacturer's recommendations, and then 100 μL reconstituted detection antibody was added to each well and incubated for 1 hour at 37° C. After incubation, plates were washed, and then 100 μL reconstituted HRP-linked secondary antibody was added to each well and incubated for 30 mins at 37° C. After incubation, plates were washed. Then, 100 μL TMB substrate was added to each well and incubated for 10 min at 37° C. or 30 min at 25° C. Finally, 100 μL of STOP solution was added to each well and mixed gently for a few seconds. Plates were read on the Envision plate reader (PerkinElmer, 2104-0010) using the 96-well […] mode. IC50 values were calculated using 4 parameter sigmoidal dose-response model of Xlfit5/GraphPad Prism 5 software.
row,SMILES,pIC50
1,CC(C)n1cnc2c(F)nc(-c3ccnc(Nc4ccc(N5CCNCC5)cn4)n3)cc21 [compound 286],> 7.00
2,CC(C)n1cnc2c1CN(c1ccnc(Nc3ccc(N4CCCNC4=O)cn3)n1)CC2 [compound 242],> 7.00
3,COc1nc(-c2nc(Nc3ccc(N4CCN(S(C)(=O)=O)CC4=O)cn3)ncc2F)cc2c1nc(C)n2C(C)C [Synthetic Example 127],6.30 to 7.00
4,Cc1nn2ccc(-c3ccnc(Nc4ccc(N5CCNCC5=O)cn4)n3)cc2c1C(C)C [compound 192],> 7.00
5,CC(C)c1cnn2ccc(-c3ccnc(Nc4ccc(C(N)=O)cc4)n3)cc12 [compound 168],> 7.00
6,COc1nc(-c2nc(Nc3ccc(N4CCNCC4=O)c(F)c3)ncc2F)cc2c1ncn2C(C)C [compound 115],6.30 to 7.00
7,CC(C)c1cnn2ccc(-c3ccnc(Nc4ccc(N5CCNCC5=O)cn4)n3)cc12 [compound 37],> 7.00
8,CC(C)c1cnn2ccc(-c3ccnc(Nc4ccc(N5CCC=CC5=O)cn4)n3)cc12 [compound 184],> 7.00
9,CCN1CCN(Cc2ccc(Nc3ncc(F)c(-c4cc(C)n5ncc(C(C)C)c5c4)n3)nc2)CC1 [compound 5],< 6.00
10,CC(C)c1cnn2ccc(-c3nc(Nc4ccc(N5CCN(CCO)CCC5=O)cn4)ncc3F)cc12 [Synthetic Example 52],> 7.00
11,CC(C)n1cnc2c(F)nc(-c3ccnc(Nc4ccc(N5CCCNC5=O)cn4)n3)cc21 [compound 275],> 7.00
12,CN(C)C1CCCN(c2ccc(Nc3nccc(-c4cc(F)c5c(c4)C(C)(C)CO5)n3)nc2)C1=O (stereo not drawn) [compound 261],> 7.00
13,COc1nc(-c2ccnc(Nc3ccc4c(n3)CCN(C(=O)CN(C)C)C4)n2)cc2c1ncn2C(C)C [Synthetic Example 140],> 7.00
14,CCN1CCN(c2ccc(Nc3nccc(-c4cc5c(ncn5C(C)C)c(OC)n4)n3)nc2)C(=O)C1 [compound 134],> 7.00
15,CC(C)(C)c1cnn2ccc(-c3ccnc(Nc4ccc(N5CCCC(N)C5=O)cc4)n3)cc12 (stereo not drawn) [compound 218],> 7.00
16,COc1nc(-c2nc(Nc3ccc(N4CCN(C5CCOCC5)CC4=O)cn3)ncc2F)cc2c1nc(C)n2C(C)C [compound 136],6.30 to 7.00

# Tested on: T47D breast cancer cells
# Experiment: Anti-proliferation assay in T47D cell (Cyquant, day 6)
# Assay type: cell-based, human
# Conditions: Homo sapiens, T47D, anti-proliferation, T47D cells; read-out: T47D IC50
# Summary of the method: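 A ten-point, 3-fold compound series (10 μM down to 0.51 nM) was applied to overnight-settled cells in 10% FBS RPMI 1640, and DNA content was read by CyQuant fluorescence 6 days later. An untreated plate read before dosing served as baseline for subtraction before IC50 fitting.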
row,SMILES,pIC50
1,CC(C)n1cnc2c(F)nc(-c3ccnc(Nc4ccc(N5CCNCC5)cn4)n3)cc21 [compound 286],> 7.00
2,CC(C)n1cnc2c1CN(c1ccnc(Nc3ccc(N4CCCNC4=O)cn3)n1)CC2 [compound 242],6.00 to 6.30
3,COc1nc(-c2nc(Nc3ccc(N4CCN(S(C)(=O)=O)CC4=O)cn3)ncc2F)cc2c1nc(C)n2C(C)C [Synthetic Example 127],6.30 to 7.00
4,Cc1nn2ccc(-c3ccnc(Nc4ccc(N5CCNCC5=O)cn4)n3)cc2c1C(C)C [compound 192],> 7.00
5,CC(C)c1cnn2ccc(-c3ccnc(Nc4ccc(C(N)=O)cc4)n3)cc12 [compound 168],> 7.00
6,COc1nc(-c2nc(Nc3ccc(N4CCNCC4=O)c(F)c3)ncc2F)cc2c1ncn2C(C)C [compound 115],6.30 to 7.00
7,CC(C)c1cnn2ccc(-c3ccnc(Nc4ccc(N5CCNCC5=O)cn4)n3)cc12 [compound 37],> 7.00
8,CC(C)c1cnn2ccc(-c3ccnc(Nc4ccc(N5CCC=CC5=O)cn4)n3)cc12 [compound 184],> 7.00
9,CCN1CCN(Cc2ccc(Nc3ncc(F)c(-c4cc(C)n5ncc(C(C)C)c5c4)n3)nc2)CC1 [compound 5],< 6.00

# Biological target: T2, CDK2/CyclinE1 (Homo sapiens, UniProt P24941)
# T2 construct: purchased SignalChem C29-18G
# Experiment: Assay for inhibition of CDK2/CyclinE1 (Caliper microfluidic kinase assay)
# Assay type: biochemical
# Conditions: CDK2/CyclinE1, 100 μM ATP; read-out: CDK2 IC50
# Summary of the method: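 IC50 came from 4-parameter fits of substrate-to-product conversion, separated on a Caliper chip after an EDTA stop. Reactions ran 3 hours at room temperature with 100 μM ATP, 5 μM fluorescent FL-18 peptide and 5 nM enzyme in 100 mM HEPES pH 7.5, 10 mM MgCl2.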
row,SMILES,pIC50
1,CC(C)n1cnc2c(F)nc(-c3ccnc(Nc4ccc(N5CCNCC5)cn4)n3)cc21 [compound 286],6.00 to 7.00
2,CC(C)n1cnc2c1CN(c1ccnc(Nc3ccc(N4CCCNC4=O)cn3)n1)CC2 [compound 242],6.00 to 7.00
3,COc1nc(-c2nc(Nc3ccc(N4CCN(S(C)(=O)=O)CC4=O)cn3)ncc2F)cc2c1nc(C)n2C(C)C [Synthetic Example 127],6.00 to 7.00
4,Cc1nn2ccc(-c3ccnc(Nc4ccc(N5CCNCC5=O)cn4)n3)cc2c1C(C)C [compound 192],7.00 to 8.00
5,CC(C)c1cnn2ccc(-c3ccnc(Nc4ccc(C(N)=O)cc4)n3)cc12 [compound 168],> 8.00
6,COc1nc(-c2nc(Nc3ccc(N4CCNCC4=O)c(F)c3)ncc2F)cc2c1ncn2C(C)C [compound 115],7.00 to 8.00
7,CC(C)c1cnn2ccc(-c3ccnc(Nc4ccc(N5CCNCC5=O)cn4)n3)cc12 [compound 37],> 8.00
8,CC(C)c1cnn2ccc(-c3ccnc(Nc4ccc(N5CCC=CC5=O)cn4)n3)cc12 [compound 184],7.00 to 8.00
9,CC(C)c1cnn2ccc(-c3nc(Nc4ccc(N5CCN(CCO)CCC5=O)cn4)ncc3F)cc12 [Synthetic Example 52],7.00 to 8.00
10,CC(C)n1cnc2c(F)nc(-c3ccnc(Nc4ccc(N5CCCNC5=O)cn4)n3)cc21 [compound 275],6.00 to 7.00
11,CN(C)C1CCCN(c2ccc(Nc3nccc(-c4cc(F)c5c(c4)C(C)(C)CO5)n3)nc2)C1=O (stereo not drawn) [compound 261],< 6.00
12,COc1nc(-c2ccnc(Nc3ccc4c(n3)CCN(C(=O)CN(C)C)C4)n2)cc2c1ncn2C(C)C [Synthetic Example 140],< 6.00
13,CCN1CCN(c2ccc(Nc3nccc(-c4cc5c(ncn5C(C)C)c(OC)n4)n3)nc2)C(=O)C1 [compound 134],6.00 to 7.00
14,CC(C)(C)c1cnn2ccc(-c3ccnc(Nc4ccc(N5CCCC(N)C5=O)cc4)n3)cc12 (stereo not drawn) [compound 218],> 8.00
15,COc1nc(-c2nc(Nc3ccc(N4CCN(C5CCOCC5)CC4=O)cn3)ncc2F)cc2c1nc(C)n2C(C)C [compound 136],< 6.00

# Biological target: T3, CDK6/CyclinD3 (Homo sapiens, UniProt Q00534)
# T3 construct: purchased Carna 04-107
# Experiment: Assay for inhibition of CDK6/CyclinD3 (Caliper microfluidic kinase assay)
# Assay type: biochemical
# Conditions: CDK6/CyclinD3, 300 μM ATP
# Summary of the method: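 IC50s came from four-parameter dose-response fits of microfluidic substrate/product separation data. Reactions held 2 nM CDK6/CyclinD3, 300 μM ATP and 1 μM 5-FAM peptide FL-34 in pH 7.5 HEPES/MgCl2 buffer, ran 3 hours at room temperature, then were quenched with EDTA.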
# T3 sequence (Q00534 whole entry): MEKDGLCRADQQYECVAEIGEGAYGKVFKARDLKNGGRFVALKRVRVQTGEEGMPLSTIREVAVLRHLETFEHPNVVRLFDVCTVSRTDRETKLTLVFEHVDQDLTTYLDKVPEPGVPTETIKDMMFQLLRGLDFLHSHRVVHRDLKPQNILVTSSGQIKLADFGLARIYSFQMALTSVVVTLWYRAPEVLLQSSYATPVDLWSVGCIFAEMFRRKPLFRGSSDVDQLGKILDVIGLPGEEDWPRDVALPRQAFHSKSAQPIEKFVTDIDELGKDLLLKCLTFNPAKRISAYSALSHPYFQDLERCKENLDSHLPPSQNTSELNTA
# T3 sequence (P30281 whole entry partner): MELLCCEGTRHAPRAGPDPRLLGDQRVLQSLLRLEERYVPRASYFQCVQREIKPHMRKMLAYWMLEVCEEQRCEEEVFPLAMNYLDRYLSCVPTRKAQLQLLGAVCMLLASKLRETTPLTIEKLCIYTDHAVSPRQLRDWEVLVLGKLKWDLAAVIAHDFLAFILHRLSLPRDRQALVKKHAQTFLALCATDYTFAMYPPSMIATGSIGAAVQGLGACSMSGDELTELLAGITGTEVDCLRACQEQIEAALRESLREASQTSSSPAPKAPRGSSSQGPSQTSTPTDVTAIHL
row,SMILES,pIC50
1,CC(C)n1cnc2c(F)nc(-c3ccnc(Nc4ccc(N5CCNCC5)cn4)n3)cc21 [compound 286],7.00 to 8.00
2,CC(C)n1cnc2c1CN(c1ccnc(Nc3ccc(N4CCCNC4=O)cn3)n1)CC2 [compound 242],7.00 to 8.00
3,COc1nc(-c2nc(Nc3ccc(N4CCN(S(C)(=O)=O)CC4=O)cn3)ncc2F)cc2c1nc(C)n2C(C)C [Synthetic Example 127],7.00 to 8.00
4,Cc1nn2ccc(-c3ccnc(Nc4ccc(N5CCNCC5=O)cn4)n3)cc2c1C(C)C [compound 192],7.00 to 8.00
5,CC(C)c1cnn2ccc(-c3ccnc(Nc4ccc(C(N)=O)cc4)n3)cc12 [compound 168],7.00 to 8.00
6,COc1nc(-c2nc(Nc3ccc(N4CCNCC4=O)c(F)c3)ncc2F)cc2c1ncn2C(C)C [compound 115],7.00 to 8.00
7,CC(C)c1cnn2ccc(-c3ccnc(Nc4ccc(N5CCNCC5=O)cn4)n3)cc12 [compound 37],7.00 to 8.00
8,CC(C)c1cnn2ccc(-c3ccnc(Nc4ccc(N5CCC=CC5=O)cn4)n3)cc12 [compound 184],7.00 to 8.00
9,CCN1CCN(Cc2ccc(Nc3ncc(F)c(-c4cc(C)n5ncc(C(C)C)c5c4)n3)nc2)CC1 [compound 5],6.00 to 7.00
10,CC(C)c1cnn2ccc(-c3nc(Nc4ccc(N5CCN(CCO)CCC5=O)cn4)ncc3F)cc12 [Synthetic Example 52],7.00 to 8.00
11,CC(C)n1cnc2c(F)nc(-c3ccnc(Nc4ccc(N5CCCNC5=O)cn4)n3)cc21 [compound 275],> 8.00
12,CN(C)C1CCCN(c2ccc(Nc3nccc(-c4cc(F)c5c(c4)C(C)(C)CO5)n3)nc2)C1=O (stereo not drawn) [compound 261],7.00 to 8.00
13,COc1nc(-c2ccnc(Nc3ccc4c(n3)CCN(C(=O)CN(C)C)C4)n2)cc2c1ncn2C(C)C [Synthetic Example 140],7.00 to 8.00
14,CCN1CCN(c2ccc(Nc3nccc(-c4cc5c(ncn5C(C)C)c(OC)n4)n3)nc2)C(=O)C1 [compound 134],7.00 to 8.00
15,CC(C)(C)c1cnn2ccc(-c3ccnc(Nc4ccc(N5CCCC(N)C5=O)cc4)n3)cc12 (stereo not drawn) [compound 218],> 8.00
16,COc1nc(-c2nc(Nc3ccc(N4CCN(C5CCOCC5)CC4=O)cn3)ncc2F)cc2c1nc(C)n2C(C)C [compound 136],7.00 to 8.00
